According to patent US10793531B2, “Triazole derivatives and their use as PDE4 activators” (MIRONID LIMITED, priority 2015, dated 2020):

What was measured:
OX161 cells = assay: Reversal of in vitro cyst formation in OX161 cells (Experiment 10); type: cell-based, human; details: compound added every 2 days from day 10 to day 20, with forskolin; FIG. 13 Panel B
Description: In this study, the potential of PDE4 long form activators to reverse the formation of pre-formed cysts was evaluated in a human ADPKD patient-derived OX161 cell line. The experiment was carried out according to the method of Experiment 9. For the first 10 days, forskolin was added at every feed (every 2 days) but no test compound was added. For the. next 10 days, the test compound and forskolin were added at every feed (every 2 days).
Phase-contrast images were obtained every 2 days for 20 days. Per condition, 10 images were taken (in duplicate) and the average cyst area calculated.

[1] = test system: androgen-sensitive (AS) LNCaP human prostate cancer cells; assay: Xcelligence proliferation assay, androgen-sensitive LNCaP cells (Experiment 5); type: cell-based; details: normalised cell index at 72 hours; FIG. 9
Description: In this study, the potential utility of PDE4 long form activators in the treatment of prostate cancer was studied using the LNCaP human prostate cancer cell line. The experiments were carried out according to the method described by Henderson et al. (Henderson, D. J. P., Byrne, A., Dulla, K., Jenster, G., Hoffmann, R., Baillie, G. S., Houslay, M. D. Br. J. Cancer 110: 1278-1287, 2014).
Androgen-sensitive (AS) LNCaP cells were maintained in RPMI1640 supplemented with 10% FBS (Seralabs), 2 mM L-glutamine and 1,000 U penicillin-streptomycin. LNCaP androgen-insensitive (AI) cells were generated in-house by culturing the LNCaP-AS cells in RPMI1640 supplemented with 10% charcoal stripped FBS, 2 mM L-glutamine and 1,000 U penicillin-streptomycin for a minimum of four weeks. All tissue culture reagents were, from Life Technologies.
Cell proliferation is measured as a function of changing electrical impedance. Values are represented by cell index number, a dimensionless unit of measurement representing the cell status, which increases as cells adhere to 96-well electrode plates and divide. […]
Cell indices were measured every 10 minutes for up to 100 hours, analysed using RICA software and normalised to the cell index of vehicle-treated cells (n=3).

full-length human PDE4B1 = target: T1, full-length human PDE4B1 (Homo sapiens, UniProt Q07343); assay: PDE4 radio-assay, PDE4B1 long form activation (Experiment 1); type: biochemical; details: n ≥ 2
T1 construct: stably expressed the full-length human PDE4D5, PDE4A4 and PDE4B1 long isoforms; made in house; cytosol fraction of the lysate
Description: (§1) One suitable method of detecting whether or not a compound is capable of serving as an activator of a PDE4 long form is using a two-step radio-assay procedure described in Experiment 1. In summary, the method involves incubating a PDE4 long form with a test small molecule activator, together with [^3H]-labelled cAMP to assess alterations in the breakdown of cAMP to the 5′-adenosine monophosphate (5′-AMP) product. A sample of the reaction mixture from such an incubation is subsequently treated with snake venom 5′-nucleotidase to allow conversion of the nucleotide [^3H]-labelled 5′-AMP to the uncharged nucleoside [^3H]-labelled adenosine, which can be separated and quantified to assess PDE4 activity and the effect of the test compound (Thompson, W. J. and Appleman, M. M. Biochemistry 10: 311-316, 1971, with some modifications as described in: Marchmont, R. J. and Houslay, M. D. Biochem J. 187: 381-92, 1980).
(§2) HEK 293 cells were transfected with pDEST™ PDE4 expression vectors using Lipofectamine LTX/Plus reagent (Invitrogen) as outlined by the manufacturer and clonal isolates expanded to obtain cell lines that stably expressed the full-length human PDE4D5, PDE4A4 and PDE4B1 long isoforms and the full length human PDE4B2 short isoform. These were called the HEK-PDE4D5, HEK-PDE4A4, HEK-PDE4B1 and HEK-PDE4B2 cell lines, respectively.
(§3) HEK-PDE4D5 cells were seeded out in 100 mm plates and incubated at 37° C. in an atmosphere of 5% CO2, 95% air. Cell lysates were prepared using KHEM buffer [50 mM KCl, 10 mM EGTA, 50 mM HEPES (pH 7.2), 1.92 mM MgCl2].
(§4) To prepare the cell lysates, the 100 mm plates containing the cells were placed on ice and washed with ice-cold PBS (phosphate buffered saline, pH 7.4). KHEM buffer (500 μl) was added to the cells. Cells were then scraped off the plate and triturated using a needle (BD Microlance™ 0.8, 40 mm). The lysed cells were then centrifuged at 2000 rpm for 10 minutes to remove cell debris and the supernatant (cell lysate containing recombinant PDE4D5) was transferred to a fresh tube and kept on ice.
(§5) The cell lysate containing recombinant PDE4D5 was transferred into a centrifuge tube and placed into an ultracentrifuge (BECKMAN COULTER) and spun at high speed (100,000 g) for 30 minutes at 4° C. The cytosol fraction was then collected and its protein amount determined using a BCA protein assay.
(§6) PDE assays were performed using a final concentration of 10 mM Tris/5 mM MgCl2 and 1 μM [3H]-cAMP (Perkin Elmer) plus PDE4D5 cell lysate cytosol fraction, containing over-expressed PDE4D5, with and without test compound. Incubations were performed at 30° C. for 5 minutes. The samples were then placed in a boiling water bath for 2 minutes to denature the PDE enzyme, and returned to ice. Samples were allowed to cool for 1.0 min after which snake venom 5′-nucleotidase (25 μl, 1 mg/ml; Sigma) was added. The tubes were vortexed and incubated in a water bath at 30° C. for 10 minutes, to attain conversion of [3H]-5′-AMP to [3H]-adenosine, and then placed on ice. Dowex ion exchange resin (Sigma) prepared as a 1:1 Dowex:water stock was thoroughly re-suspended and diluted 2:1 with ethanol. The resulting Dowex suspension (0.4 ml) was added to each tube. Tubes were vortexed to mix and then incubated on ice for at least 15 minutes before a final vortex. […] Tubes were vortexed thoroughly to mix and the recovered [3H]-adenosine was quantified by measuring counts over 1 minute in a scintillation counter.

full-length human PDE4A4 = target: T2, full-length human PDE4A4 (Homo sapiens, UniProt P27815); assay: PDE4 radio-assay, PDE4A4 long form activation (Experiment 1); type: biochemical; details: n ≥ 2
T2 construct: stably expressed the full-length human PDE4D5, PDE4A4 and PDE4B1 long isoforms; made in house; cytosol fraction of the lysate
Description: as §1, §2, §3, §4, §5, §6

T2 sequence (P27815 whole entry, canonical isoform): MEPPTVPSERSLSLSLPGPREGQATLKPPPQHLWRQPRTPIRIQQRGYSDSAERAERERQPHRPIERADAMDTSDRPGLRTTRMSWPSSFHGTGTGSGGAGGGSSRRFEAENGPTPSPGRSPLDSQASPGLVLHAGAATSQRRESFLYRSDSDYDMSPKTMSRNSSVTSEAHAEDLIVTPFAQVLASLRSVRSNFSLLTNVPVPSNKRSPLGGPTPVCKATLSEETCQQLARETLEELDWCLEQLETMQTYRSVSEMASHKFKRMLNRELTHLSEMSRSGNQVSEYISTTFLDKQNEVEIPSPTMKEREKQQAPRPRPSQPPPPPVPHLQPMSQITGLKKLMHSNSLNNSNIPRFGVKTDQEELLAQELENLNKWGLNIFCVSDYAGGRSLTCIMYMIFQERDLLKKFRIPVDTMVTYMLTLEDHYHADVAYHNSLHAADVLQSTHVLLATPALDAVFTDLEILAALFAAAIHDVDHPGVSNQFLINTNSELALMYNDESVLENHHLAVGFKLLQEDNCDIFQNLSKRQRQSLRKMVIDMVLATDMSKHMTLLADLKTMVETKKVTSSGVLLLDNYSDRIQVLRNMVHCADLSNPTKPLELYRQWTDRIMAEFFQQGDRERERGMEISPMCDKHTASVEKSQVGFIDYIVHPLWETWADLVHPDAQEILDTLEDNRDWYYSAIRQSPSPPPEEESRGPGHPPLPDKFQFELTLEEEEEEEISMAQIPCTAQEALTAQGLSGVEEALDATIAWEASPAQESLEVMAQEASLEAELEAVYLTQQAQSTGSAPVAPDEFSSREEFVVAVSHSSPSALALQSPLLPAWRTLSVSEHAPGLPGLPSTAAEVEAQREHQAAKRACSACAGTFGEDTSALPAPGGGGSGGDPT
T1 sequence (Q07343 whole entry, canonical isoform): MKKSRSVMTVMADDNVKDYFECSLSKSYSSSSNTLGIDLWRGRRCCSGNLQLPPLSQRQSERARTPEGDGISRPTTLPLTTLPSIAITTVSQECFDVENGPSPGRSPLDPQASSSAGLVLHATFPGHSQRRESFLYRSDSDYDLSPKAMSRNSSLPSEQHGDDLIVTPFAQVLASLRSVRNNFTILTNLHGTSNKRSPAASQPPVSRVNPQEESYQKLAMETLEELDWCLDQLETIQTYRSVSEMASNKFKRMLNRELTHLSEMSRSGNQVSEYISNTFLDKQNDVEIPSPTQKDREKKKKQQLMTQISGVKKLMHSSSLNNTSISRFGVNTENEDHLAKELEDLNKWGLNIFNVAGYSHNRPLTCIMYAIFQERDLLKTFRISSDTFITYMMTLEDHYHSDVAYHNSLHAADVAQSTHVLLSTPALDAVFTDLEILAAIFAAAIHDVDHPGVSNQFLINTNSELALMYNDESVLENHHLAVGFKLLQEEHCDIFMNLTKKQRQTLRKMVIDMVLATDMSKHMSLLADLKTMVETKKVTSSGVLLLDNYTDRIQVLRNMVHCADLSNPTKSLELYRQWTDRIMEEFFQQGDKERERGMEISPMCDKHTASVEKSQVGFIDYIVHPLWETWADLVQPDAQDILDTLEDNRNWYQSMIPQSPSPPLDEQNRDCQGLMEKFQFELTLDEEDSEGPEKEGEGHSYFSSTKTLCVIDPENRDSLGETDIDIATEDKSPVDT

CCc1nc(-c2ccc(Cl)c(F)c2)nn1CC(=O)NCc1cccc(F)c1 [Example A, N-(3-Fluorobenzyl)-2-[3-(4-chloro-3-fluorophenyl)-5-ethyl-1H-1,2,4-triazol-1-yl]acetamide]
in vitro cyst formation in OX161 cells, reversal (in words) (OX161 cells): reversed in vitro cyst formation | proliferation of androgen-sensitive (AS) LNCaP cells (in words) [1]: inhibits the proliferation | PDE4B1 activity (mean % increase in counts over basal activity without added compound) (full-length human PDE4B1; 1 μM compound): −2.4% | PDE4B1 activity (mean % increase in counts over basal activity without added compound) (full-length human PDE4B1; 3 μM compound): 4.9% | PDE4B1 activity (mean % increase in counts over basal activity without added compound) (full-length human PDE4B1; 10 μM compound): 22.0% | PDE4B1 activity (mean % increase in counts over basal activity without added compound) (full-length human PDE4B1; 30 μM compound): 61.3% | PDE4B1 activity (mean % increase in counts over basal activity without added compound) (full-length human PDE4B1; 50 μM compound): 92.9% | PDE4A4 activity (mean % increase in counts over basal activity without added compound) (full-length human PDE4A4; 1 μM compound): 1.1% | PDE4A4 activity (mean % increase in counts over basal activity without added compound) (full-length human PDE4A4; 3 μM compound): 2.7% | PDE4A4 activity (mean % increase in counts over basal activity without added compound) (full-length human PDE4A4; 10 μM compound): 10.4% | PDE4A4 activity (mean % increase in counts over basal activity without added compound) (full-length human PDE4A4; 30 μM compound): 38.5% | PDE4A4 activity (mean % increase in counts over basal activity without added compound) (full-length human PDE4A4; 50 μM compound): 65.4%
